These results are taken from patent US9421281B2, “Target vector with activable imaging function” (Centre National de la Recherche Scientifique, priority 2005, dated 2016).

The subject of data set [1] is Hekβ3 cells. As to the kind of experiment: Penetration into the cells, laser scanning confocal microscopy. The class given is cell-based. Particulars: 1 to 2 hours of incubation. How it is done: FIG. 13: Penetration of the labels into the cells, imaged by laser scanning confocal microscopy. Hekβ3 cells after 1 to 2 hours incubation in the presence of a negative control RAFT(4cRAD)-Cy5 (column 1), or in the presence of RAFT(4cRGD)-Cy5 (column 2), RAFT(4cRGD)-Cy5-Cys-S—S-Cys-Cy5 (column 3), or RAFT(4cRGD)-Cy5-Cys-S—S-Cys-quencher (column 4). The penetration into the cells of the probes RAFT-(cRGD)4-Cy5, RAFT-(cRGD)4-Cy5-Cys-S—S-Cys-Cy5 and RAFT-(cRGD)4-Cy5-Cys-S—S-Cys-QSY21 was observed on Hekβ3 cells, after 1 to 2 hours of incubation.

Data set [2] deals with subcutaneous tumor of IGROV-1 type. As to the kind of experiment: Optical imaging of tumors in the nude mouse (fluorescence reflectance imaging). Type of data set: in vivo, nude mice. The following applies: 10 nmol/mouse i.v.; for evolution of the signal in the tumor over time / signal in the tumor compared with the control probe: IGROV-1 tumor, FIG. 12A; for contrast, ratio of signal between the tumor and the skin: compared with RAFT-(cRGD)4-Cy5-Cys-S—S-cysteine, FIG. 12B. How it is done:
FIG. 12: Results of the in vivo injection of the molecular probes RAFT-(cRGD)4-Cy5-Cys-S—S-Cys=Cy5, RAFT-(cRGD)4-Cy5-Cys-S—S-Cys-QSY21, and RAFT-(cRGD)4-Cy5-Cys-S—S-Cys (control) in nude mice, imaged using a fluorescence imaging device (excitation 633 nm; detection λ>670 nm). Intravenous injection of 10 nmol of probe/mouse, in 100 μL of PBS (pH 7.1, 9.5 mM), into the tail of anesthetized mice carrying, on the back, a subcutaneous tumor of IGROV-1 type ([…] injected subcutaneously 2 weeks before imaging). A. Fluorescence intensity measured in the tumor over time. B. Ratio of the fluorescence intensities measured in the tumor and in the skin over time. C. Images obtained 10 minutes and 5 h after injection for the various molecular probes.
The mice used are female nude mice 6 to 8 weeks old, maintained under pathogen-free conditions. The IGROV-1 cells (human ovarian cancer model) are cultured in an RPMI 1640 culture medium containing 1% of glutamine, 10% of FCS, 50 U/ml of penicillin and 50 μg/ml of streptomycin. The cells are maintained at 37° C. under a humid atmosphere with 5% of CO2. 10×10^6 cells are injected subcutaneously into the back of the mice 2 weeks before injection of the molecular vectors RAFT-(cRGD)4-Cy5-Cys-S—S-Cys-Cy5 and RAFT-(cRGD)4-Cy5-Cys-S—S-Cys-QSY21. The latter are injected into the tail intravenously, in 100 μl of PBS (pH 7.1, 9.5 mM), at doses of 10 nmol/mouse.
The anesthetized mice are imaged with a fluorescence reflectance imaging (FRI) device, comprising as excitation source a crown of LEDs equipped with interference filters, emitting at 633 nm (illumination power 50 μW·cm^−2). The images are collected after filtration with an RG665 colored filter of optical density>5 at the excitation wavelength by means of a CCD camera (Orca BTL, Hamamatsu), with an exposure time of 100 ms. The signals are quantified using image processing software.

Data set [3] can be described thus: Chemical cleavage of the disulfide bridge with 2-mercaptoethanol (absorption and fluorescence). Type of data set: physicochemical. Particulars: for fluorescence after chemical cleavage of the S—S disulfide bridge: imaging function grafted onto RAFT-(cRGD)4, 10 mM PBS, pH 7.2, [2-MCE]=85 mM; for fluorescence of the Cy5 fluorophore(s) before cleavage of the disulfide bridge: imaging function grafted onto RAFT-(cRGD)4, 0.5 or 0.10 μM in 10 mM PBS, pH 7.2. The source says: FIG. 5: Absorption and fluorescence of the imaging function Cy5-Cys-S—S-Cys-Cy5 before and after chemical cleavage of the disulfide bridge with 2-mercaptoethanol (2-MCE). A. Absorption spectrum and evolution thereof over time during the addition of 2-MCE. […] C. Evolution over time of the fluorescence of the imaging function during the addition of 2-MCE. […] FIG. 6: Absorption and fluorescence of the imaging function Cy5-Cys-S—S-Cys-QSY21 before and after chemical cleavage of the disulfide bridge with 2-mercaptoethanol (2-MCE). A. Absorption spectra and evolution thereof over time during the addition of 2-MCE. […] C. Evolution over time of the fluorescence of the imaging function during the addition of 2-MCE. […] FIG. 10: Absorption and fluorescence of the imaging function Cy5-Cys-S—S-Cys-Cy5 grafted onto RAFT-(cRGD)4, before and after chemical cleavage of the disulfide bridge with 2-mercaptoethanol (2-MCE). A. Absorption spectrum and evolution thereof over time during the addition of 2-MCE. […] C. Evolution over time of the fluorescence of the imaging function during the addition of 2-MCE. […] FIG. 11: Absorption and fluorescence of the imaging function Cy5-Cys-S—S-Cys-QSY21 grafted onto RAFT-(cRGD)4, before and after chemical cleavage of the disulfide bridge with 2-mercaptoethanol (2-MCE). A. Absorption spectrum and evolution thereof over time during the addition of 2-MCE. […] C. Evolution over time of the fluorescence of the imaging function during the addition of 2-MCE.

Take “cysteine(Cy5)-S—S-cysteine(Cy5)RAFTc[RGDfK-]4 [RAFT-(cRGD)4-Cy5-Cys-S—S-Cys-Cy5]”: in data set [1], the “penetration into the cells (location of fluorescence)” value (shortened to “penetration into the cells”) is reported as “does not enter well”. In data set [2], the “evolution of the signal in the tumor over time” value (from here on “evolution … over time”) is recorded as “gradual appearance of the signal in the tumor”; the “signal in the tumor compared with the control probe” value is on record as “more signal in the tumor”; the “contrast, ratio of signal between the tumor and the skin” value was “increases”. For the same substance, in data set [3], the “fluorescence after chemical cleavage of the S—S disulfide bridge” value was “completely released” and the “fluorescence of the Cy5 fluorophore(s) before cleavage of the disulfide bridge” value was “initially self-quenched”.
“cysteine(Cy5)-S—S-cysteine(QSY21)RAFTc[RGDfK-]4 [RAFT-(cRGD)4-Cy5-Cys-S—S-Cys-QSY21]”: in data set [1], the “penetration into the cells” value is reported as “clear fluorescence inside the cells”. In addition, the “penetration into the cells” value in data set [1] (listed as RAFT-Cy5-Cys-S—S-Cys-Q) is “penetrates into the cells better”. For the same substance, in data set [2], the “evolution … over time” value is recorded as “gradual appearance of the signal in the tumor”; the “signal in the tumor compared with the control probe” value was “more signal in the tumor”; the “contrast, ratio of signal between the tumor and the skin” value was “increases”. In addition, in data set [3], the “fluorescence after chemical cleavage of the S—S disulfide bridge” value is “completely released” and the “fluorescence of the Cy5 fluorophore(s) before cleavage of the disulfide bridge” value is “initially self-quenched”.
In the case of “cysteine(Cy5)-S—S-cysteineRAFTc[RGDfK-]4 [RAFT-(cRGD)4-Cy5-Cys-S—S-cysteine, reference compound]”, the “evolution … over time” value in data set [2] was “decreases very rapidly over time”.
